Test results published in patent publication US7781565B2 (priority 2006, dated 2010).
“Also recorded” adds a separate entry of the source.

Test system: NCI-60 cell lines
Type: cell-based, human

| Substance | Cell Line (NCI-60 cell line the peptide and its motif are associated with) | Cell Line (NCI-60 cell line the peptide is associated with) | Cell Line with which the peptide (and its tripeptide motif) is associated | Cell Line the peptide is associated with (peptide recovered from phage library selection on this NCI-60 cell line) |
| --- | --- | --- | --- | --- |
| AAGAGWR | OVCAR-4 Ovarian |  |  |  |
| AAGGLLV |  | HCC-2998-Colon |  |  |
| AAGRAGC |  |  | H322-Lung |  |
| AAGREFR |  |  | Hop-62-Lung |  |
| AAGRIRP |  | HCT-15 Colon |  |  |
| AAGRSRI | M14 Melanoma |  |  |  |
| AAIVGVS |  |  |  | MDA-MB-231 Breast |
| AAKTLLS |  | SW620-Colon |  |  |
| AALLRAV | OVCAR-4 Ovarian |  |  |  |
| AARAVWG |  |  |  | RXF393 Renal |
| AARGELR | UACC62 Melanoma |  |  |  |
| AARGLEA |  | COLO-205-Colon |  |  |
| AARGVMV | SK-MEL-2 Melanoma |  |  |  |
| AASGSYY |  | HT-29 Colon |  |  |
| AASLRGT | UACC62 Melanoma |  |  |  |
| AASPHPG |  |  |  | T-47D Breast |
| AASSWAV | M14 Melanoma |  |  |  |
| AASTRSL |  | MALME-3M Melanoma |  |  |
| AASVGVA |  |  |  | MDA-MB-231 Breast |
| AATLLSF |  |  | K-562-Leukemia |  |
| AATRAGS | UACC 257 Melanoma |  |  |  |
| AAVETGV |  | SF-268 CNS |  |  |
| AAVFVRS |  |  | K-562-Leukemia |  |
| AAVGGRV | M14 Melanoma |  |  |  |
| AAVGTAL |  |  |  | RXF393 Renal |
| AAVTVVR |  | KM-12C Colon |  |  |
| AAVWAAD |  |  | HL-60-Leukemia |  |

| Substance | Cell Line (NCI-60 cell line the peptide and its motif are associated with) | Cell Line (NCI-60 cell line the peptide is associated with) | Cell Line with which the peptide (and its tripeptide motif) is associated | Cell Line the peptide is associated with (peptide recovered from phage library selection on this NCI-60 cell line) |
| --- | --- | --- | --- | --- |
| AAVWQMK |  | SNB-19 CNS; also recorded: SF-539 CNS |  |  |
| AAVWWAA | DU-145 Prostate |  |  |  |
| AAYWGPS |  |  |  | A498 Renal |
| ACGSGLD | SK-MEL-5 Melanoma |  |  |  |
| ACTGVSR |  |  |  | RXF393 Renal |
| ADFFGLV |  |  | RPMI-8226-Leukemia |  |
| ADGRLRY |  | KM-12C Colon |  |  |
| ADIGAGG |  |  | HL-60-Leukemia |  |
| ADLGAGW | OVCAR-4 Ovarian |  |  |  |
| ADWGVLE |  | SNB-75 CNS |  |  |
| AECCGGL |  |  |  | ACHN Renal |
| AEDSGGR |  |  |  | BT-549 Breast |
| AEGGSGH |  |  | A549-Lung |  |
| AEPRGRV |  |  | H460-Lung |  |
| AEYGRVL | M14 Melanoma |  |  |  |
| AFFMGLR |  |  |  | ACHN Renal |
| AFGGGSM |  |  |  | SN12C Renal |
| AFKTGGS | M14 Melanoma |  |  |  |
| AGATRGS |  |  |  | HS 578 T Breast |
| AGDRGVA | DU-145 Prostate |  |  |  |
| AGDSRLS |  | HCT-15 Colon |  |  |
| AGGFGVL | IGROV1 Ovarian |  |  |  |
| AGGFRFI | SK-MEL-2 Melanoma |  |  |  |
| AGGGGYH |  |  |  | MDA-MB-435-Breast |
| AGGGPPA |  |  | EKVX-Lung |  |
| AGGIWIR |  | KM-12C Colon |  |  |
